Results as given in patent publication US20090253669A1, “Substituted Sulfonamide Compounds” (GRUENENTHAL GmbH, priority 2008, published 2009).

Assays:
[1] = target: T1, B1R receptor of the rat (rB1R) (Rattus norvegicus, UniProt P97583); test: FLIPR Ca2+ assay on rB1R-transfected CHO K1 cells, antagonistic action; format: cell-based; conditions: CHO-K1, 10 μM test substance; agonist Des-Arg9-bradykinin 100 nM; % of maximum achievable inhibition; read-out: rB1R [10 μM] % inhibition
T1 construct: host or cells: CHO K1 cells
T1 sequence (P97583 1-337): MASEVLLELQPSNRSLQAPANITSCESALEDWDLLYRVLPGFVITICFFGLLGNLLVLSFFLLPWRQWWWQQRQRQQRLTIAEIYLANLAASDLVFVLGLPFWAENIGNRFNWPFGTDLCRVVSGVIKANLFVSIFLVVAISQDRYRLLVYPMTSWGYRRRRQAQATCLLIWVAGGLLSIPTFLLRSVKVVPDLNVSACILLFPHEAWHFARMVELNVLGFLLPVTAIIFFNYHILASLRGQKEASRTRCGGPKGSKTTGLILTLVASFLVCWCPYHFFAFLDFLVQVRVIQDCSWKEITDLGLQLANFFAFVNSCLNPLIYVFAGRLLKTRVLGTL

[2] = target: T2, human B1R receptor (hB1R) (Homo sapiens, UniProt P46663); test: FLIPR Ca2+ assay on hB1R-transfected CHO K1 cells, antagonistic action; format: cell-based; conditions: CHO-K1, 10 μM test substance; agonist Lys-Des-Arg9-bradykinin 0.5 nM; % of maximum achievable inhibition; read-out: hB1R [10 μM] % inhibition
T2 construct: host or cells: CHO K1 cells
T2 sequence (P46663 1-353): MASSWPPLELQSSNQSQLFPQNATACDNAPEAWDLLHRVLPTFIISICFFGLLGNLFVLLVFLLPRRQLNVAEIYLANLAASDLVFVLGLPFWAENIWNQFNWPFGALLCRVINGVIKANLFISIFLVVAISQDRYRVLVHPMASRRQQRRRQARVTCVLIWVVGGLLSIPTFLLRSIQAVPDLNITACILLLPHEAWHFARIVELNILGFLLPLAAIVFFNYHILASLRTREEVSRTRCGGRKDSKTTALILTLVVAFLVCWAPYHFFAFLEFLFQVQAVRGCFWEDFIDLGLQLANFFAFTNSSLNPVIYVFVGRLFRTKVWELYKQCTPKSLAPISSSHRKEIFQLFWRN

SMILES | inhibition at 10 µM [1] [%] | inhibition at 10 µM [2] [%]
COc1cc(C)c(S(=O)(=O)N2CCCCC2COCC(=O)NC2CCC(Cc3ccccc3)(N3CCOCC3)CC2)c(C)c1 (stereo not drawn) [Compound 155, N-(4-benzyl-4-morpholinocyclohexyl)-2-((1-(4-methoxy-2,6-dimethylphenylsulfonyl)piperidin-2-yl)methoxy)acetamide] | 100 | 97
COc1cc(C)c(S(=O)(=O)N(C)CCOCC(=O)NC2CCC(Cc3ccccc3)(N3CCCCCC3)CC2)c(C)c1 (stereo not drawn) [Compound 20, N-(4-(azepan-1-yl)-4-benzylcyclohexyl)-2-(2-(4-methoxy-N,2,6-trimethylphenylsulfonamido)ethoxy)acetamide] | 69 | 91
Cc1cc(S(=O)(=O)N2CCCCC2CCC(=O)N(C)CC2CCC(CCc3ccccc3)(N3CCCC3)CC2)c(C)cc1Cl (stereo not drawn) [Compound 141, 3-(1-(4-chloro-2,5-dimethylphenylsulfonyl)piperidin-2-yl)-N-methyl-N-((4-phenethyl-4-(pyrrolidin-1-yl)cyclohexyl)methyl)propanamide] | 20 | 104
COc1cc(C)c(S(=O)(=O)N2CCCC(OCC(=O)NC3CCC(Cc4ccccc4)(N4CCCC4)CC3)C2)c(C)c1 (stereo not drawn) [Compound 181, N-(4-benzyl-4-(pyrrolidin-1-yl)cyclohexyl)-2-(1-(4-methoxy-2,6-dimethylphenylsulfonyl)piperidin-3-yloxy)acetamide] | 71 | 78
COc1cc(C)c(S(=O)(=O)N2CCCC(OCC(=O)NC3CCC(Cc4ccccc4)(N4CCOCC4)CC3)C2)c(C)c1 (stereo not drawn) [Compound 190, N-(4-benzyl-4-morpholinocyclohexyl)-2-(1-(4-methoxy-2,6-dimethylphenylsulfonyl)piperidin-3-yloxy)acetamide] | 57 | 90
Cc1cc(S(=O)(=O)N2CCCCC2CCC(=O)N2CCC(c3ccccc3)(N3CCN(C)CC3)CC2)c(C)cc1Cl (stereo not drawn) [Compound 110, 3-(1-(4-chloro-2,5-dimethylphenylsulfonyl)piperidin-2-yl)-1-(4-(4-methylpiperazin-1-yl)-4-phenylpiperidin-1-yl)propan-1-one] | 78 | 104
COc1cc(C)c(S(=O)(=O)N(C)CCOCC(=O)N2CCC(c3ccncc3)(N(C)C)CC2)c(C)c1 [Compound 206, N-(2-(2-(4-(dimethylamino)-4-(pyridin-4-yl)piperidin-1-yl)-2-oxoethoxy)ethyl)-4-methoxy-N,2,6-trimethylbenzenesulfonamide] | 99 | 100
COc1cc(C)c(S(=O)(=O)N(C)CCOCC(=O)N2CCC(c3ccccc3)(N3CCN(C)CC3)CC2)c(C)c1 [Compound 41, 4-methoxy-N,2,6-trimethyl-N-(2-(2-(4-(4-methylpiperazin-1-yl)-4-phenylpiperidin-1-yl)-2-oxoethoxy)ethyl)benzenesulfonamide] | 101 | 103
COc1cc(C)c(S(=O)(=O)N2CCCCC2COCC(=O)N2CCC(Cc3ccccc3)(N(C)C)CC2)c(C)c1 (stereo not drawn) [Compound 65, 1-(4-benzyl-4-(dimethylamino)piperidin-1-yl)-2-((1-(4-methoxy-2,6-dimethylphenylsulfonyl)piperidin-2-yl)methoxy)ethanone] | 100 | 104
Cc1ccccc1CC1(N(C)C)CCC(NC(=O)CC2c3ccccc3CCN2S(=O)(=O)c2ccc(Cl)c(Cl)c2)CC1 (stereo not drawn) [Compound 12, 2-(2-(3,4-dichlorophenylsulfonyl)-1,2,3,4-tetrahydroisoquinolin-1-yl)-N-(4-(dimethylamino)-4-(2-methylbenzyl)cyclohexyl)acetamide] | 88 | 77
COc1cc(C)c(S(=O)(=O)N2CCCCC2COCC(=O)N2CCC(c3ccc(F)cc3)(N3CCN(C)CC3)CC2)c(C)c1 (stereo not drawn) [Compound 70, 1-(4-(4-fluorophenyl)-4-(4-methylpiperazin-1-yl)piperidin-1-yl)-2-((1-(4-methoxy-2,6-dimethylphenylsulfonyl)piperidin-2-yl)methoxy)ethanone] | 99 | 104
COc1cc(C)c(S(=O)(=O)N2CCCCC2COCC(=O)N(C)CCC2CCC(c3ccccc3)(N(C)C)CC2)c(C)c1 (stereo not drawn) [Compound 81, N-(2-(4-(dimethylamino)-4-phenylcyclohexyl)ethyl)-2-((1-(4-methoxy-2,6-dimethylphenylsulfonyl)piperidin-2-yl)methoxy)-N-methylacetamide] | 99 | 104
COc1cc(C)c(S(=O)(=O)N(C)CCOCC(=O)NC2CCC(Cc3ccc(F)cc3)(N(C)C)CC2)c(C)c1 (stereo not drawn) [Compound 9, N-(4-(dimethylamino)-4-(4-fluorobenzyl)cyclohexyl)-2-(2-(4-methoxy-N,2,6-trimethylphenylsulfonamido)ethoxy)acetamide] | 95 | 104
COc1cc(C)c(S(=O)(=O)N2CCC(OCC(=O)NC3CCC(Cc4ccccc4C)(N(C)C)CC3)C2)c(C)c1 (stereo not drawn) [Compound 14, N-(4-(dimethylamino)-4-(2-methylbenzyl)cyclohexyl)-2-(1-(4-methoxy-2,6-dimethylphenylsulfonyl)pyrrolidin-3-yloxy)acetamide] | 82 | 89
COc1cc(C)c(S(=O)(=O)N2CCCC(OCC(=O)NC3CCC(c4ccccc4)(N4CCCC4)CC3)C2)c(C)c1 (stereo not drawn) [Compound 176, 2-(1-(4-methoxy-2,6-dimethylphenylsulfonyl)piperidin-3-yloxy)-N-(4-phenyl-4-(pyrrolidin-1-yl)cyclohexyl)acetamide] | 77 | 89
Cc1cc(C)c(S(=O)(=O)N2CCC(OCC(=O)NC3CCC(CCc4ccccc4)(N(C)C)CC3)C2)c(C)c1 (stereo not drawn) [Compound 29, N-(4-(dimethylamino)-4-phenethylcyclohexyl)-2-(1-(mesitylsulfonyl)pyrrolidin-3-yloxy)acetamide] | 46 | 61
CN(C)C1(c2cccc(F)c2)CCC(NC(=O)COCCN(C)S(=O)(=O)c2ccc(Cl)cc2Cl)CC1 (stereo not drawn) [Compound 21, 2-(2-(2,4-dichloro-N-methylphenylsulfonamido)ethoxy)-N-(4-(dimethylamino)-4-(3-fluorophenyl)cyclohexyl)acetamide] | 67 | 29
CN(CCC1CCC(Cc2ccccc2)(N2CCCC2)CC1)C(=O)CC(NS(=O)(=O)c1ccc2ccccc2c1)c1ccccc1 (stereo not drawn) [Compound 56, N-(2-(4-benzyl-4-(pyrrolidin-1-yl)cyclohexyl)ethyl)-N-methyl-3-(naphthalene-2-sulfonamido)-3-phenylpropanamide] | 100 | 101
CN1CCN(C2(Cc3ccccc3)CCC(CN(C)C(=O)COCC3CCCCN3S(=O)(=O)c3c(Cl)cc(Cl)cc3Cl)CC2)CC1 (stereo not drawn) [Compound 162, N-((4-benzyl-4-(4-methylpiperazin-1-yl)cyclohexyl)methyl)-N-methyl-2-((1-(2,4,6-trichlorophenylsulfonyl)piperidin-2-yl)methoxy)acetamide] | 94 | 102
COc1cc(C)c(S(=O)(=O)N(CCOCC(=O)N2CCC(c3cccc(F)c3)(N3CCN(C)CC3)CC2)Cc2ccccc2)c(C)c1 [Compound 218, N-Benzyl-N-(2-(2-(4-(3-fluorophenyl)-4-(4-methylpiperazin-1-yl)piperidin-1-yl)-2-oxoethoxy)ethyl)-4-methoxy-2,6-dimethylbenzenesulfonamide] | 101 | –
COc1cc(C)c(S(=O)(=O)N(CCOCC(=O)N2CCC(c3cccc(F)c3)(N3CCN(C)CC3)CC2)c2ccccc2)c(C)c1 [Compound 219, N-(2-(2-(4-(3-Fluorophenyl)-4-(4-methylpiperazin-1-yl)piperidin-1-yl)-2-oxoethoxy)ethyl)-4-methoxy-2,6-dimethyl-N-phenylbenzenesulfonamide] | 61 | –
COc1cc(C)c(S(=O)(=O)N(C)CCOCC(=O)N2CCC(c3cccc(F)c3)(N3CCN(C)CC3)CC2)c(C)c1C [Compound 224, N-(2-(2-(4-(3-Fluorophenyl)-4-(4-methylpiperazin-1-yl)piperidin-1-yl)-2-oxoethoxy)ethyl)-4-methoxy-N,2,3,6-tetramethylbenzenesulfonamide] | 100 | –
COc1cc(C)c(S(=O)(=O)N2c3ccccc3CCC2COCC(=O)N2CCC(c3cccc(F)c3)(N3CCN(C)CC3)CC2)c(C)c1 (stereo not drawn) [Compound 220, 1-(4-(3-Fluorophenyl)-4-(4-methylpiperazin-1-yl)piperidin-1-yl)-2-((1-(4-methoxy-2,6-dimethylphenylsulfonyl)-1,2,3,4-tetrahydroquinolin-2-yl)methoxy)ethanone] | 97 | –
